Values joined by “and” are separate entries in the source; they are usually repeats but may differ in a detail not shown here. Equal values may be shown once. Active and inactive are the calls of the source.
Experiments:
[1] = molecular target: T1, Bcl-2-related protein A1 (Mus musculus, UniProt Q07440); test: Bfl-1 inhibitors, primary screen, biochemical, fluorescence polarization, FITC-Bid, mouse (AID 432)
T1 sequence (Q07440 whole entry): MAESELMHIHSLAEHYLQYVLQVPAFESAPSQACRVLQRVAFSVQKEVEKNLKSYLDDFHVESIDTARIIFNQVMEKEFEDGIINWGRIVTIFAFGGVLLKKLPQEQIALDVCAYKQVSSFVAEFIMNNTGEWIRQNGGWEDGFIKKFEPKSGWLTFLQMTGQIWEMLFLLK

[2] = molecular target: Glyceraldehyde-3-phosphate dehydrogenase (Homo sapiens, UniProt P04406)
Glyceraldehyde-3-phosphate dehydrogenase, sequence (P04406 whole entry): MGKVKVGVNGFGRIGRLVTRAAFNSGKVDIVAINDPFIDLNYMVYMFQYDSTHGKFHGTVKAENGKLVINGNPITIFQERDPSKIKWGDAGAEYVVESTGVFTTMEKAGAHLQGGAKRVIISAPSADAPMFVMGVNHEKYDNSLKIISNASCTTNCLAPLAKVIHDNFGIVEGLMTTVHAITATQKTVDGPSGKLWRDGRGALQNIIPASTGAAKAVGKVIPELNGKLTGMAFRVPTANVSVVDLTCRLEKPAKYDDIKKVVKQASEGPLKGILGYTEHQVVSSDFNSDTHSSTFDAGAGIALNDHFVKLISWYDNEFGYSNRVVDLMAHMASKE

[3] = cytotoxicity in HPDE-C7 cells, cell-based, fluorescence, HTS (AID 430); assay type: functional; conditions: Homo sapiens
[4] = molecular target: T1, Bcl-2-related protein A1; test: Bfl-1 inhibitors blocking BH3 peptide binding, confirmation, biochemical, TR-FRET, mouse Bfl-1 (AID 621);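 also: TR-FRET binding of GST-Bfl-1 to FITC-labelled Bid peptide via terbium antibody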
[5] = cytotoxicity in KRAS-transformed pancreatic duct cells, primary screen, cell-based, fluorescence, HTS (AID 431); assay type: functional; conditions: Homo sapiens;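 also: cell line used: HPDE-C7K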
[6] = molecular target: T1, Bcl-2-related protein A1; test: Bfl-1 binding inhibitors, SAR follow-up, biochemical, fluorescence polarization (AID 1070)
[7] = growth suppression of PTEN-null colon cells, dose response, cell-based, HCT116 PTEN knockout (AID 1047); assay type: functional;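 also: HCT116 colon tumor cells with PTEN knocked out; cells exposed to compound for 60 hours before readout; potency for loss of cell viability measured by luminescence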
[8] = molecular target: T2, Heat shock factor protein 1 (Mus musculus, UniProt P38532); test: HSF1 potentiators in luciferase reporter cells, confirmation, cell-based, NIH3T3, luminescence, dose retest (AID 435004); assay type: functional;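 also: stress induced by proteasome inhibitor MG132 added 30 min after compound; luciferase reporter driven by HSF1 response element in NIH3T3 cells; actives raise luminescence as potentiators of the MG132 stress response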
T2 sequence (P38532 whole entry): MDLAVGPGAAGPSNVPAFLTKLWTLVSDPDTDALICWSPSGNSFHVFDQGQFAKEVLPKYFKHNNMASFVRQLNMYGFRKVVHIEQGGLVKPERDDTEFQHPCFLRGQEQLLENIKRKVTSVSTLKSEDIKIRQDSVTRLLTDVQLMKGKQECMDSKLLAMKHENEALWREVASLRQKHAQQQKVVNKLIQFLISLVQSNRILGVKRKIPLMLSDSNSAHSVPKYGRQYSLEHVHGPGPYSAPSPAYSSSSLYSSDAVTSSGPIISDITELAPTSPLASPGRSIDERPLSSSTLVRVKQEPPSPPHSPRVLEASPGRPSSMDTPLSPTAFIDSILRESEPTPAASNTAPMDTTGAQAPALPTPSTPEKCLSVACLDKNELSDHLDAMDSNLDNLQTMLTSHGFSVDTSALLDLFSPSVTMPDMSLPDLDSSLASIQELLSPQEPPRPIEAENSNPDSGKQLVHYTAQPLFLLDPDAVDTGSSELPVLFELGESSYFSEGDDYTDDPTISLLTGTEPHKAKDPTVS

[9] = HEK293T cell cytotoxicity, dose response, cytotoxicity control for HIV Vif inhibitor project, cherry-picks (AID 652208); assay type: functional, cell-based
[10] = Counterscreen for […] of the human trace amine associated receptor 1 (TAAR1): Fluorescence-based cell-based high throughput dose response assay to identify nonselective Ga16 agonists.; assay type: functional
[11] = molecular target: T3, Trace amine-associated receptor 1 (Homo sapiens, UniProt Q96RJ0); test: Fluorescence-based cell-based high throughput dose response assay to identify antagonists of the human trace amine associated receptor 1 (TAAR1).; assay type: functional
T3 sequence (Q96RJ0 whole entry): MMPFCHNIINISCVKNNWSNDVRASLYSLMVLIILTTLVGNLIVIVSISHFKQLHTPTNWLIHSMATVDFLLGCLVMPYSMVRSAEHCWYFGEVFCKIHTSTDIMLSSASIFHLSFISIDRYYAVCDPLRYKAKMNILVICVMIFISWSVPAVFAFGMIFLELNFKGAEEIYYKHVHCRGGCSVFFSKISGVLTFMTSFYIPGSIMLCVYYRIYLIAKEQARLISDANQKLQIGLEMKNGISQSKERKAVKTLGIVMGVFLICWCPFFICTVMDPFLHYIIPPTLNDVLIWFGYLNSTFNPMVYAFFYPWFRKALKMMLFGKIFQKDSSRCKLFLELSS

[12] = Counterscreen for antagonists of the human trace amine associated receptor 1 (hTAAR1): Fluorescence-based cell-based high throughput dose response assay to identify nonselective Ga16 antagonists.; assay type: functional
[13] = molecular target: T3, Trace amine-associated receptor 1; test: Counterscreen for antagonists of the human trace amine associated receptor 1 (hTAAR1): Fluorescence-based cell-based high throughput dose response assay to identify TAAR1 Agonists.; assay type: functional
[14] = Luminescence Cell-Based Dose Confirmation HTS to Identify Activators of 5'UTR Stem-Loop Driven Alpha-Synuclein mRNA Translation in H4 Neuroglioblastoma Cells. [Related pubchem assays: 1829 (Project Summary), 1814 (Primary HTS)]; assay type: functional
[15] = Luminescence Cell-Based Dose Response HTS to Identify Activators of Luciferase Translation or Activity in H4 […] Cells. [Related pubchem assays: 1829 (Project Summary), 1814 (Primary HTS)]; assay type: functional
[16] = molecular target: T4, Neuropeptide Y receptor type 1 (Homo sapiens, UniProt P25929); assay type: functional;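 also: HEK293 cells with a CNG channel challenged with NPY then isoproterenol; potency as antagonist that reverses NPY suppression of cAMP signal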
T4 sequence (P25929 whole entry): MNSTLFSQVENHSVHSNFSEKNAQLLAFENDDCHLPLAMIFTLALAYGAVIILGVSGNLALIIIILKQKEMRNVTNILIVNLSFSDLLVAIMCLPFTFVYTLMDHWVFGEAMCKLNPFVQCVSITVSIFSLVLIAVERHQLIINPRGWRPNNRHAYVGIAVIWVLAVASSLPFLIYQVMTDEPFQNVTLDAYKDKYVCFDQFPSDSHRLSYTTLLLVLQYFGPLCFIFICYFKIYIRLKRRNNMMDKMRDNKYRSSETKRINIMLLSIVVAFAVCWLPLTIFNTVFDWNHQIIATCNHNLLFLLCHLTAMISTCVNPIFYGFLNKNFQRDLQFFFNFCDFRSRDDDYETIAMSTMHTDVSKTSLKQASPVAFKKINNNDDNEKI

[17] = cells; assay type: functional, cell-based
[18] = system: H4; test: Luminescence Cell-Based Dose Response HTS to Identify Activators of 5'UTR Stem-Loop Driven Prion Protein mRNA Translation in H4 Neuroglioblastoma Cells. [Related pubchem assays: 1829 (Project Summary), 1814 (Primary HTS)]; assay type: functional; conditions: Homo sapiens
[19] = cells; assay type: functional, cell-based; remark: listed apart in the source
[20] = molecular target: T5, Neuropeptide Y receptor type 2 (Homo sapiens, UniProt P49146); assay type: functional, cell-based;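 also: HEK293 cells expressing the receptor and a CNG channel; stimulus was NPY near EC95 followed by isoproterenol to raise cAMP; antagonist potency measured as restoring cAMP signal that NPY suppresses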
T5 sequence (P49146 whole entry): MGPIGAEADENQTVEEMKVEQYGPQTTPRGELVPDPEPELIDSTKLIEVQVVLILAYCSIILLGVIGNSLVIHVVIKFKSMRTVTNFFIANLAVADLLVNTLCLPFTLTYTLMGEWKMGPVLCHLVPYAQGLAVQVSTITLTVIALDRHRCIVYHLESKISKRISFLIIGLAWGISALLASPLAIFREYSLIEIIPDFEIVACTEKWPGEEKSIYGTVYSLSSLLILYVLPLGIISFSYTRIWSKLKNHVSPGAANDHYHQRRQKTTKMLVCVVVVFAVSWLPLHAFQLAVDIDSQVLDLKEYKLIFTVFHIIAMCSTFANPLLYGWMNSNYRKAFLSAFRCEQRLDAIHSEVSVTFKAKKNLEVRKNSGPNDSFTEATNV

[21] = molecular target: SWI/SNF-related matrix-associated actin-dependent regulator of chromatin subfamily A member 2 (Homo sapiens, UniProt P51531); test: Luminescence-based cell-based high throughput dose response assay to identify activators of the function of SWI/SNF related, matrix associated, actin dependent regulator of chromatin, subfamily a, member 2 (SMARCA2, BRM).; assay type: functional
SWI/SNF-related matrix-associated actin-dependent regulator of chromatin subfamily A member 2, sequence (P51531 whole entry): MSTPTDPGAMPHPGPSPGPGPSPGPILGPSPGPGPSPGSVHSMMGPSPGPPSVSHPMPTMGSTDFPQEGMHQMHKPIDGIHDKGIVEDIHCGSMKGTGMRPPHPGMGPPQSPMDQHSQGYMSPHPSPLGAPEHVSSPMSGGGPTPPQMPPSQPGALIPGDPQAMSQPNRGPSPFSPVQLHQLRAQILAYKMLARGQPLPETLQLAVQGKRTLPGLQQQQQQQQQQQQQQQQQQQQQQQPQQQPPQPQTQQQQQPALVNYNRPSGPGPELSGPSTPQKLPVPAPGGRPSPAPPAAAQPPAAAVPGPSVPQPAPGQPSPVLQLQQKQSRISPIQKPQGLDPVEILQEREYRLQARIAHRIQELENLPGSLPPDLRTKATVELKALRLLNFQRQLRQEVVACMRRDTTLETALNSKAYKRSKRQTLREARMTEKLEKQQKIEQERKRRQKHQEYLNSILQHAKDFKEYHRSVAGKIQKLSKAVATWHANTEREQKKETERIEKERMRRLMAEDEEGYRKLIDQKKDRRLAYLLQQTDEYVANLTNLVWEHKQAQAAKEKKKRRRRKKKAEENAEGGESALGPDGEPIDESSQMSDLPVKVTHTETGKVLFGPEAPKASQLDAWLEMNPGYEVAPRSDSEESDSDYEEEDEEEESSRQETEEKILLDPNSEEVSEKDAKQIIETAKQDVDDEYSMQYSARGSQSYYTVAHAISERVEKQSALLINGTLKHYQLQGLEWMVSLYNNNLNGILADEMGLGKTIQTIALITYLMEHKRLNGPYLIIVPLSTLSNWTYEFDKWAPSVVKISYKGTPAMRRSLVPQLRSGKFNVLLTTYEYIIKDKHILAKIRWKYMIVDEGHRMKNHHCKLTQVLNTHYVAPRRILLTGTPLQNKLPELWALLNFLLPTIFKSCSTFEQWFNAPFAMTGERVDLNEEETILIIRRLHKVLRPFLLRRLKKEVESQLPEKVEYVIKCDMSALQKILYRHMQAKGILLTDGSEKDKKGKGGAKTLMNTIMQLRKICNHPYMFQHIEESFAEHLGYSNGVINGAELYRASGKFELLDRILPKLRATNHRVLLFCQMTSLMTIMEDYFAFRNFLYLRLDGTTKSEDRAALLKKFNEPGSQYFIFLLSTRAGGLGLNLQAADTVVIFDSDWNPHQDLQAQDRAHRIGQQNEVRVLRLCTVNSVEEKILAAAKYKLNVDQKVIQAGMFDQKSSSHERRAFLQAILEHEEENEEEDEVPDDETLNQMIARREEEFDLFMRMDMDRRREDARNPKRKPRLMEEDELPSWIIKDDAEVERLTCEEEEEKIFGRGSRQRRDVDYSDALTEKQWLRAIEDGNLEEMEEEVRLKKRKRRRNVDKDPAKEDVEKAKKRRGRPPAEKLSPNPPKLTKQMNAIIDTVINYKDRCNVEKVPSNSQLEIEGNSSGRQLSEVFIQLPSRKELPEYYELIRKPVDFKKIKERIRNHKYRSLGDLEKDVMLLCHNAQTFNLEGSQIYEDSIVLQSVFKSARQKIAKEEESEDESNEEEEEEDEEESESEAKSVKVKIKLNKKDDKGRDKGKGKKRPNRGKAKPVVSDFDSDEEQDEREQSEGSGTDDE

[22] = Counterscreen for activators of the function of SWI/SNF related, matrix associated, actin dependent regulator of chromatin, subfamily a, member 2 (SMARCA2, BRM): Luminescence-based cell-based high throughput dose response assay to identify non-selective compounds using the VP16 reporter assay.; assay type: functional
[23] = molecular target: Beta-galactosidase (Escherichia coli, UniProt Q8VNN2); test: Dose response counterscreen for EBI2 assay utilizing the enzyme, b-galactosidase.; assay type: functional
Beta-galactosidase, sequence (Q8VNN2 whole entry): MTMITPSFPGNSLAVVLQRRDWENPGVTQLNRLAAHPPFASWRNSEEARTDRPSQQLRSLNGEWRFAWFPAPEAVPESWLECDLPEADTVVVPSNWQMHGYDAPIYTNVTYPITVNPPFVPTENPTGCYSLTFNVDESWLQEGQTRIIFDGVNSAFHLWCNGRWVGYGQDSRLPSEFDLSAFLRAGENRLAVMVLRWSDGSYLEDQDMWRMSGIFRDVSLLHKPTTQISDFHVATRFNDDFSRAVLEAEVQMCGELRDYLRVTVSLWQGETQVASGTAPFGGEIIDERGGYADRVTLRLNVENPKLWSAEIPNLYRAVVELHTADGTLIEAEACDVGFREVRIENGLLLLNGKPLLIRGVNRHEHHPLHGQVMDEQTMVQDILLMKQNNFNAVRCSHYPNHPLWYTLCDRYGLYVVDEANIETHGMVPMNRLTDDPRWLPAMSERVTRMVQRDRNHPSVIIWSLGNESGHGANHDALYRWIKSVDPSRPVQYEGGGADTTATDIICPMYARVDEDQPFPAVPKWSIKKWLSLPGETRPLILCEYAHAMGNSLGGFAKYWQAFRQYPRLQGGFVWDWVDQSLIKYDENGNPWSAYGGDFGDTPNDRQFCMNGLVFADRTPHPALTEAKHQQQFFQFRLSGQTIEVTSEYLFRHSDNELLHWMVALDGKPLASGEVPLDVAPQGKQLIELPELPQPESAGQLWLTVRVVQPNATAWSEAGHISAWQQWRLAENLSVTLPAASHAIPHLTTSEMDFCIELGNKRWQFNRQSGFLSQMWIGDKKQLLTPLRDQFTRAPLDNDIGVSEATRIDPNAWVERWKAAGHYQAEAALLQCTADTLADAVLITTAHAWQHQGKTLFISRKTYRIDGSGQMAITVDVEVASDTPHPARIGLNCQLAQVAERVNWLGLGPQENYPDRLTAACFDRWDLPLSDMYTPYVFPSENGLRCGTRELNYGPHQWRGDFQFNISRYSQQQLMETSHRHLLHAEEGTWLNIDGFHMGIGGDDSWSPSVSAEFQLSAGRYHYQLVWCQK

[24] = miR-122 activators in hepatoma reporter cells, dose response, cell-based, Huh7 psiCHECK-miR122, Renilla luciferase, cherry-picked (AID 651956); assay type: functional;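 also: huh7 hepatoma cells stably carrying a psiCHECK-2 miR-122 sensor plasmid; renilla luciferase signal reporting endogenous miR-122 activity after 48 h compound exposure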
[25] = HEK293T cytotoxicity, dose response, cytotoxicity control for miR-122 modulator project, cell-based, inhibitor set, cherry-pick, set 2 (AID 720697); assay type: functional

With `COc1ccc(-c2cc(C(F)(F)F)nc(S(C)(=O)=O)n2)cc1OC` the IC50 [1] was 25.4 µM (active), the IC50 [2] was > 100 µM (not active) and the EC50 [3] was 4.49 µM (active). For the same compound, the IC50 [4] was 12.7 µM (active) and 4.51 µM (active), the EC50 [5] was 3.47 µM (active) and the IC50 [6] was 23.2 µM (active). The EC50 [7] was 32.1 µM (active), the EC50 [8] was 5.47 µM (active) and the AC50 [9] was 13.2 µM (active).
With `O=C(CCN1C(=O)C2C3C=CC(C3)C2C1=O)NCCc1ccccc1` (stereo not given) the EC50 [10] was > 29.9 µM (inactive), the IC50 [11] was > 29.9 µM (inactive) and the IC50 [12] was > 29.9 µM (inactive). The EC50 [13] was > 29.9 µM (inactive).
With `O=c1c2ccccc2nc2c3ccccc3c(NCCN3CCOCC3)nn12` the EC50 [14] was > 120 µM (not active), the EC50 [15] was 18 µM (active) and the IC50 [16] was 4.38 µM (active). The EC50 [17] was > 350 µM (not active), the EC50 [18] was > 120 µM (inconclusive) and the EC50 [19] was > 350 µM (not active). The IC50 [20] was > 35 µM (not active), the EC50 [21] was > 10.1 µM (inactive) and the EC50 [22] was > 91.2 µM (inactive).
With `O=C(/C=C/c1ccc(F)cc1)N1CCN(Cc2ccccc2)CC1` the IC50 [23] was > 80 µM (inactive).
With `C[C@H]1CN([C@@H](C)CO)S(=O)(=O)c2ccc(-c3ccc(C(=O)N(C)C)cc3)cc2O[C@H]1CN(C)C(=O)C1CCC1` the AC50 [24] was 10.9 µM (active) and the AC50 [25] was 2.2 µM (active).
